Results published in paper PMC3849192, “A Simple Method for Assessing Free Brain/Free Plasma Ratios Using an In Vitro Model of the Blood Brain Barrier” (PLoS ONE, 2013).

Columns and labels:
[1] = test system: in vitro BBB model (co-culture of bovine brain capillary endothelial cells and rat glial cells); assay: In vitro BBB co-culture model, Cu,br/Cu,pl ratio; conditions: for In vitro Cu,br/Cu,pl Mean 1 h: 2 µM in luminal compartment, abluminal/luminal concentration at 1 h; for In vitro Cu,br/Cu,pl Mean steady-state: steady-state ratio computed from 1 h data with the blue-norna steady-state calculator
Method: Figure 1 Schematic diagram of the experimental protocol. After 12 days of coculture in cell culture medium, both compartments of the in vitro BBB model consisting of a coculture of brain capillary endothlial cells and rat primary glial cells were filled with Hepes-buffered Ringer’s solution and the compounds dissolved at 2 µM were added in the luminal compartment (i.e donor). The presence of glial cells in the abluminal compartment was used to reproduce the non specific binding to brain tisssue within the brain prenchyma in vivo. After 1 hour, aliquots were taken from both compartments. In vitro Cu,br/Cu,pl at 1 h were calculated by dividing the concentration in the abluminal compartment (∼Cu,br) by the concentration in the luminal compartment (∼Cu,pl) at 1 h. The experimental data at 1 h were computed using the blue-norna steady-state calculator to generate the in vitro steady-state Cu,br/Cu,pl.
One hour after the addition of compounds dissolved at 2 µM in the luminal (i.e upper) compartment, aliquots were taken from both compartments previously filled with Hepes-buffered Ringer’s solution at the beginning of the experiment. […] The concentrations in both compartments of the in vitro assay after 1 h were computed using […] blue-norna.com to generate the in vitro steady-state Cu,br/Cu,pl.
The method of Dehouck et al. was used with minor modifications (Fig. 1). Bovine brain endothelial cells isolated from capillary fragments were cocultured with primary mixed glial cells from newborn Sprague–Dawley rats. The glial cells were isolated according to the method of Booher and Sensenbrenner and cultured for 3 weeks, plated on the bottom of cell culture clusters containing six wells each. The endothelial cells were seeded onto collagen-coated polycarbonate cell culture inserts (4.7 cm^2) (Corning Incorp. NY, USA), which were placed in the wells containing glial cells. The medium used for the coculture was Dulbecco’s modified Eagle’s medium supplemented with 10% calf serum, 10% horse serum, 2 mmol/L glutamine, 50 mg/L gentamicin and 1 µg/L basic fibroblast growth factor (Sigma). The medium was changed every second day. Experiments were usually initiated after 12 days of co-culture.
To monitor the integrity of the endothelial cell monolayer, the marker molecule [^14C] sucrose was added to the solution at a concentration of 0.05 µCi/ml. At the start of the transport experiments, buffered Ringer’s solution (pH = 7.4) was added to wells with glial cells. Inserts with brain endothelial cells were placed in these wells and drug solutions at 2 µM were added to the donor compartment. The plates were incubated for 1 h in a polymix shaker at 37°C with a low shaking velocity. Aliquots were taken from the donor compartment in the beginning and at the end of the experiments. The receiver compartments were sampled at the end of the experiments.
The amount of radiotracer in the abluminal compartment was measured in a liquid scintillation analyser (Packard Instrument Company, Meriden, USA). […] The concentrations of the test compound in all samples were analysed by MS/MS.
The mean free brain/plasma ratios were calculated from three individual experiments. One hour ratios were calculated by dividing the drug concentration in the receiver compartment by the free drug concentration in the donor compartment after 1 h. The experimental data at one hour (i.e concentration in both compartment at the beginning of the experiment and after 1 h) were computed using the blue-norna® steady-state calculator (www.blue-norna.com) to predict the in vivo steady-state Cu,br/Cu,pl ratios. For further details on this calculation method see file S1.
The in vivo steady-state Cu,br/Cu,pl were predicted from the in vitro experimental data collected after one hour according to the following equation: […]
Cdonor, t and Creceiver, t are the concentration of drug in the donor and receiver chambers at time t.

[2] = Fraction unbound brain (fu,br), brain homogenate equilibrium dialysis; conditions: brain homogenate (10%), 1 µM, equilibrium dialysis 18 hrs at 37°C
Method: The degree of brain binding was assessed by equilibrium dialysis. Brain homogenate (10%) was spiked with test compound at 1 µM in triplicate. […] The plate was then placed in a shaker/incubator to equilibrate for 18 hrs at 37°C. […] After the addition of 50 µl of buffer to the brain homogenate samples, 150 µl of acetonitrile was added to each sample. Finally, 50 µl of water was added to all buffer and brain homogenate samples. The plates were centrifuged and the supernatant analyzed by LC-MS/MS.

In vitro Cu,br/Cu,pl Mean 1 h [1]: 0.10 | In vitro Cu,br/Cu,pl Mean 1 h ([1]; listed as clozapine): 0.103 | In vitro Cu,br/Cu,pl Mean steady-state [1]: 0.71 | In vitro Cu,br/Cu,pl Mean steady-state ([1]; listed as clozapine): 0.713 | fubrain (homog.) Mean [2]: 0.0094
SMILES: CN1CCN(C2=Nc3cc(Cl)ccc3Nc3ccccc32)CC1 [Clozapine]
